Laboratory results as given in patent US9809623B2, “α4β7 peptide monomer and dimer antagonists” (Protagonist Therapeutics, Inc., priority 2014, dated 2017).
“And” between values parts separate entries of the source, which are not always exact repeats. Equal values may be shown once. Read-outs that look alike come from different tables or passages of the source. Numbered stars: 1 amine (or outer) side, 2 acyl side, 3 side chain; on linkers, the order of the positions; unused ones are H or OH. Bridge positions count the residues as written; N and C are the ends. Square brackets hold non-standard residues; d marks the D form. Peptide text beside a SMILES is read from it. I, II: the chains in the order shown. Phe(4-COOH) = N[C@@H](Cc1ccc(C(=O)O)cc1)C(=O)O; Phe(4-tBu) = CC(C)(C)c1ccc(C[C@H](N)C(=O)O)cc1; Bip = N[C@@H](Cc1ccc(-c2ccccc2)cc1)C(=O)O; Diglycolyl = O=C(COCC(=O)[*:2])[*:1]; NMeR = CN[C@@H](CCCNC(=N)N)C(=O)O; β3hE = N[C@@H](CCC(=O)O)CC(=O)O; NMeK = CN[C@@H](CCCCN)C(=O)O; Pen = CC(C)(S)[C@H](N)C(=O)O

Tests used:
α4β7 = α4β7 (Homo sapiens, UniProt P13612+P26010); test: α4β7-MAdCAM Cell Adhesion Assay (RPMI 8866 human cells); type: cell-based; design: host or cells: RPMI 8866 human B lymphoblastoid cells
Procedure, shortened: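 Adhesion read-out: MTT absorbance at 570 nm minus no-cell wells, after three washes. Plates coated with rh MAdCAM-1/Fc received peptide dilutions plus 200,000 RPMI 8866 cells in Mn2+ (1 mM)-supplemented DMEM, 0.1% BSA, HEPES pH 7, incubated 30-45 min, 37 °C.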

α4β1 = target: T1, α4β1 (Homo sapiens, UniProt P05556+P13612, DEL729-798); test: α4β1-VCAM Competition ELISA; type: binding
T1 construct: purchased R&D Systems 5668-A4
Procedure, shortened: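 ELISA plates were coated with VCAM-1 Fc at 400 ng/well. Peptide dilutions (highest final 100 μM) and 60 nM α4β1 were incubated 2 h at 37 °C in pH 7.6 Tris buffer containing 1 mM Mn2+ or Mg2+. Integrin retained on the plate was detected by 9F10 antibody, then HRP secondary, with TMB absorbance at 450 nm.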

[1] = Simulated Intestinal Fluid (SIF) Stability Assay; type: in vitro ADME, porcine; details: for half-life at 22 μM: pig
Procedure, shortened: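 Intestinal stability: percent peptide remaining over time, by LC-MS/MS peak-area ratio to internal standard, fitted to first-order decay for half-life. Conditions: 22 μM peptide, 1% pancreatin in pH 6.5 blank FASSIF, 37 °C.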

[2] = Table 3-B, Potency (α4β7), range classes, read-out: α4β7 cell (Hu) IC50
[3] = Table 3-B, Selectivity (α4β1), range classes, read-out: α4β1 ELISA IC50
[4] = simulated intestinal fluid (SIF) with 1% porcine pancreatin, pH 6.5, Table 3-B, > means experiment was stopped at that time and half life was not reached, read-out: Stabilty SIF t1/2
[5] = simulated intestinal fluid (SIF) with 1% porcine pancreatin, pH 6.5, Table 3-B, alone or in parentheses after >360, read-out: Stabilty SIF t1/2, in hr (converted)

T1 sequence (P13612 34-977 limits assumed, stated change not applied): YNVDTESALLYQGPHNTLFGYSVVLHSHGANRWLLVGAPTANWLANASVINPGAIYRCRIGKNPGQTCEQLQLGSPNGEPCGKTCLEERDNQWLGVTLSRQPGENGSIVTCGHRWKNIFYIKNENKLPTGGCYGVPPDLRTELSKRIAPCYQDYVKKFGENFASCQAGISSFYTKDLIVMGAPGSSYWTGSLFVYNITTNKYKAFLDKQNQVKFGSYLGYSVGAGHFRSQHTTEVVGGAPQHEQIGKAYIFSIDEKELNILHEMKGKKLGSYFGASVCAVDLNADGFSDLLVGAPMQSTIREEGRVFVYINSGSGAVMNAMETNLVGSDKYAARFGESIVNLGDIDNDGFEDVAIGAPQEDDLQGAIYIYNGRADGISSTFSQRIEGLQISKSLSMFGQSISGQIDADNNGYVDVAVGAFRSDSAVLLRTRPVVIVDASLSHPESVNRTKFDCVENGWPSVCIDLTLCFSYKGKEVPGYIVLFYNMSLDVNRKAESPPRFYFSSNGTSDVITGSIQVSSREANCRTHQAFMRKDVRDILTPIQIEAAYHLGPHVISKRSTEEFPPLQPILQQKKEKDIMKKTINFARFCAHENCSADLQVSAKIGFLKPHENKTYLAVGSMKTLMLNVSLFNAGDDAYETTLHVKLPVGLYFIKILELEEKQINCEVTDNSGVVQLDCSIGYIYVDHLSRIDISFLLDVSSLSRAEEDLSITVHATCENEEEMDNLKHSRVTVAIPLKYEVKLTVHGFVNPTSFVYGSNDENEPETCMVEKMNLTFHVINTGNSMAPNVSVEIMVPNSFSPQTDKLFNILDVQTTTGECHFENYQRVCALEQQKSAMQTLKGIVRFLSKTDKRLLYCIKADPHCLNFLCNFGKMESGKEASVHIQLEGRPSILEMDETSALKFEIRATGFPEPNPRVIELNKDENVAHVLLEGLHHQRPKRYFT
T1 sequence (P05556 21-728 limits assumed, stated change not applied): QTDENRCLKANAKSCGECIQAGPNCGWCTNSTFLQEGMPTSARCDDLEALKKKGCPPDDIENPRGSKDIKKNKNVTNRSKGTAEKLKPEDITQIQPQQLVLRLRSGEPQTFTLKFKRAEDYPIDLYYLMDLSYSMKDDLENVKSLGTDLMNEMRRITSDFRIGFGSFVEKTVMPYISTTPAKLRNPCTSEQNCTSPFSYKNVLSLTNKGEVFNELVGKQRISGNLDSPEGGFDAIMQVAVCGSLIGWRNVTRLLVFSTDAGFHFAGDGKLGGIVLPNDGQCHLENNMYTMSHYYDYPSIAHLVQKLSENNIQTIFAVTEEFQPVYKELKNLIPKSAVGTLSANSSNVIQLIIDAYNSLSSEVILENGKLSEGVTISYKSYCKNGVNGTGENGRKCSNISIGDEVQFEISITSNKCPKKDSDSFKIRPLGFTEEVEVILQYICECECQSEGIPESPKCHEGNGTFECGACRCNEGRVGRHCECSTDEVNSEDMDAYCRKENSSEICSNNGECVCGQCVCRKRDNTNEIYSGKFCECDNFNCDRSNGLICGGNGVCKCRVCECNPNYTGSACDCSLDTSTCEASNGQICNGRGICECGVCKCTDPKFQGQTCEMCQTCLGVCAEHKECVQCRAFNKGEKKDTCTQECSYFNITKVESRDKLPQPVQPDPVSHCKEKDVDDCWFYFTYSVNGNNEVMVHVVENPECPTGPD
Sequence of α4β7 (P13612 34-1032): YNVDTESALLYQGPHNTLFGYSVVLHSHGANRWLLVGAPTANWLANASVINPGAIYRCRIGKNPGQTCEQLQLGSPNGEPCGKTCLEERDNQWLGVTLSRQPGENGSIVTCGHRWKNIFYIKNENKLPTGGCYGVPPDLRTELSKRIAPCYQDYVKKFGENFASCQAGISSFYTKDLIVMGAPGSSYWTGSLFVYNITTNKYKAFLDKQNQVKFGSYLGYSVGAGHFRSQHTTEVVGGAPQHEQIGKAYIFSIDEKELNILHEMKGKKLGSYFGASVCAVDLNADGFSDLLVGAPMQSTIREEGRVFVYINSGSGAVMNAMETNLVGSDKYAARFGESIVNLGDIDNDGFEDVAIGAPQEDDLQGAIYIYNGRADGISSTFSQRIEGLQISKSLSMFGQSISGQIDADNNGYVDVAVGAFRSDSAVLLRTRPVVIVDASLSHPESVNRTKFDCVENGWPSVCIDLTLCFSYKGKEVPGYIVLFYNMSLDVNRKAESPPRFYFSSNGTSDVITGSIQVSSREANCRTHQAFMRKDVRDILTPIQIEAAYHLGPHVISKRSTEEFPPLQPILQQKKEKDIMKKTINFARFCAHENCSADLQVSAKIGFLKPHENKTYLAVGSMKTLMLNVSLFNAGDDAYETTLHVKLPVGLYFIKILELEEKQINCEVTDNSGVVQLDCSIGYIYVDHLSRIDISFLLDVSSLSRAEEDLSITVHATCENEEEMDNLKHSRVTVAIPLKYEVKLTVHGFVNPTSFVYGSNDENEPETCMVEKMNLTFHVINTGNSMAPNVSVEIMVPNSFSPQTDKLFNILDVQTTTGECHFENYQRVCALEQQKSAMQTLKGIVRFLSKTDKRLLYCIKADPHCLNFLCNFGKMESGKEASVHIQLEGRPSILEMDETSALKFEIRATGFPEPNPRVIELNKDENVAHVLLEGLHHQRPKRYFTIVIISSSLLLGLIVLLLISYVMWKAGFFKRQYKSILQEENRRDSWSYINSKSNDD
Sequence of α4β7 (P26010 20-798): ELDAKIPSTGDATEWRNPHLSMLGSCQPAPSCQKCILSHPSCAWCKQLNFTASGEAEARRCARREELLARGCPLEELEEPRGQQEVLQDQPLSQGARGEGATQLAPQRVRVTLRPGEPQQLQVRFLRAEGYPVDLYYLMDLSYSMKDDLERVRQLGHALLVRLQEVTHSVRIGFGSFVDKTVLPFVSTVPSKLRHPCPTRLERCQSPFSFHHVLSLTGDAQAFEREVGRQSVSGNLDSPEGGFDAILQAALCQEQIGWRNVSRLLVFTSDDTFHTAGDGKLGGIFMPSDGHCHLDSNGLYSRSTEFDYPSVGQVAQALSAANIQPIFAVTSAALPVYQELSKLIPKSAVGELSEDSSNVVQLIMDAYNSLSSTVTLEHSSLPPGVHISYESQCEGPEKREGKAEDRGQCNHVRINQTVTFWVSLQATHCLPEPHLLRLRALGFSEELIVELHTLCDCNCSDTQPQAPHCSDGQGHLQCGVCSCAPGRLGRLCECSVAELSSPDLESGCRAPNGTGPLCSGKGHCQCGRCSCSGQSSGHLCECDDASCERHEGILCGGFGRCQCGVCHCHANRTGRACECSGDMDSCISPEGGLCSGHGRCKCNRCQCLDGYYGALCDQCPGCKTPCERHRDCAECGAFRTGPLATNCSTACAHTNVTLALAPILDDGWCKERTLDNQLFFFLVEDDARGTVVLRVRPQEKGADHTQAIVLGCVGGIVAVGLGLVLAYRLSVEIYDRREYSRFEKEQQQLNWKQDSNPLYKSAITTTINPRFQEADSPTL

Row | SMILES | IC50 (α4β7; [2]) [nM] | IC50 (α4β1; [3]) | half-life at 22 μM [1, 4] [h] | other results
1 | CC(=O)N[C@@H]1C(=O)N(C)[C@@H](CCCNC(=N)N)C(=O)N[C@@H](CO)C(=O)N[C@@H](CC(=O)O)C(=O)N[C@@H]([C@@H](C)O)C(=O)N[C@@H](CC(C)C)C(=O)N[C@H](C(=O)N[C@@H](Cc2ccc(C(=O)O)cc2)C(=O)N[C@@H](CCC(=O)O)CC(=O)N[C@H](CCCCNC(=O)COCC(=O)NCCCC[C@@H](NC(=O)C[C@H](CCC(=O)O)NC(=O)[C@H](Cc2ccc(C(=O)O)cc2)NC(=O)[C@H]2NC(=O)[C@H](CC(C)C)NC(=O)[C@H]([C@@H](C)O)NC(=O)[C@H](CC(=O)O)NC(=O)[C@H](CO)NC(=O)[C@H](CCCNC(=N)N)N(C)C(=O)[C@@H](NC(C)=O)C(C)(C)SSC2(C)C)C(N)=O)C(N)=O)C(C)(C)SSC1(C)C [compound 130] (I: Ac-[Pen][NMeR]SDTL[Pen][Phe(4-COOH)][β3hE][dK]-NH2 / II: Ac-[Pen][NMeR]SDTL[Pen][Phe(4-COOH)][β3hE][dK]-NH2; disulfide I:1-I:7, II:1-II:7; linker I:10-II:10 via Diglycolyl) | < 10 | 100 to 500 nM | > 6 | half-life at 22 μM [1, 5]: 16 h
2 | CC(=O)N[C@@H]1C(=O)N(C)[C@@H](CCCNC(=N)N)C(=O)N[C@@H](CO)C(=O)N[C@@H](CC(=O)O)C(=O)N[C@@H]([C@@H](C)O)C(=O)N[C@@H](CC(C)C)C(=O)N[C@H](C(=O)N[C@@H](Cc2ccc(C(C)(C)C)cc2)C(=O)N[C@@H](CCC(=O)O)CC(=O)N[C@H](CCCCNC(=O)COCC(=O)NCCCC[C@@H](NC(=O)C[C@H](CCC(=O)O)NC(=O)[C@H](Cc2ccc(C(C)(C)C)cc2)NC(=O)[C@H]2NC(=O)[C@H](CC(C)C)NC(=O)[C@H]([C@@H](C)O)NC(=O)[C@H](CC(=O)O)NC(=O)[C@H](CO)NC(=O)[C@H](CCCNC(=N)N)N(C)C(=O)[C@@H](NC(C)=O)C(C)(C)SSC2(C)C)C(N)=O)C(N)=O)C(C)(C)SSC1(C)C [compound 132] (I: Ac-[Pen][NMeR]SDTL[Pen][Phe(4-tBu)][β3hE][dK]-NH2 / II: Ac-[Pen][NMeR]SDTL[Pen][Phe(4-tBu)][β3hE][dK]-NH2; disulfide I:1-I:7, II:1-II:7; linker I:10-II:10 via Diglycolyl) | < 10 | 100 to 500 nM and 500 to 1000 nM | – | Stabilty SIF t1/2, in hr ([1]; Table 3-B, alone or in parentheses after >360): 11 h; half-life at 22 μM ([1]; simulated intestinal fluid (SIF) with porcine pancreatin, pH 6.5, Table 3-B, > means experiment was stopped at that time and half life was not reached, read-out: Stabilty SIF t1/2): > 6 h; half-life at 22 μM ([1]; simulated intestinal fluid (SIF) with porcine pancreatin, pH 6.5, Table 3-B, alone or in parentheses after >360, read-out: Stabilty SIF t1/2, in hr (converted)): 10.7 h
3 | CC(=O)N[C@@H]1C(=O)N(C)[C@@H](CCCNC(=N)N)C(=O)N[C@@H](CO)C(=O)N[C@@H](CC(=O)O)C(=O)N[C@@H]([C@@H](C)O)C(=O)N[C@@H](CC(C)C)C(=O)N[C@H](C(=O)N[C@@H](Cc2ccc(C(=O)O)cc2)C(=O)N[C@@H](CCC(=O)O)C(=O)N(C)[C@@H](CCCCNC(=O)COCC(=O)NCCCC[C@@H](C(N)=O)N(C)C(=O)[C@H](CCC(=O)O)NC(=O)[C@H](Cc2ccc(C(=O)O)cc2)NC(=O)[C@H]2NC(=O)[C@H](CC(C)C)NC(=O)[C@H]([C@@H](C)O)NC(=O)[C@H](CC(=O)O)NC(=O)[C@H](CO)NC(=O)[C@H](CCCNC(=N)N)N(C)C(=O)[C@@H](NC(C)=O)C(C)(C)SSC2(C)C)C(N)=O)C(C)(C)SSC1(C)C [compound 147] (I: Ac-[Pen][NMeR]SDTL[Pen][Phe(4-COOH)]E[NMeK]-NH2 / II: Ac-[Pen][NMeR]SDTL[Pen][Phe(4-COOH)]E[NMeK]-NH2; disulfide I:1-I:7, II:1-II:7; linker I:10-II:10 via Diglycolyl) | < 10 | 100 to 500 nM | > 5 | –
4 | CC(=O)N[C@@H]1C(=O)N(C)[C@@H](CCCNC(=N)N)C(=O)N[C@@H](CO)C(=O)N[C@@H](CC(=O)O)C(=O)N[C@@H]([C@@H](C)O)C(=O)N[C@@H](CC(C)C)C(=O)N[C@H](C(=O)N[C@@H](Cc2ccc(C(=O)O)cc2)C(=O)N[C@@H](CCC(=O)O)CC(=O)N(C)[C@@H](CCCCNC(=O)COCC(=O)NCCCC[C@@H](C(N)=O)N(C)C(=O)C[C@H](CCC(=O)O)NC(=O)[C@H](Cc2ccc(C(=O)O)cc2)NC(=O)[C@H]2NC(=O)[C@H](CC(C)C)NC(=O)[C@H]([C@@H](C)O)NC(=O)[C@H](CC(=O)O)NC(=O)[C@H](CO)NC(=O)[C@H](CCCNC(=N)N)N(C)C(=O)[C@@H](NC(C)=O)C(C)(C)SSC2(C)C)C(N)=O)C(C)(C)SSC1(C)C [compound 148] (I: Ac-[Pen][NMeR]SDTL[Pen][Phe(4-COOH)][β3hE][NMeK]-NH2 / II: Ac-[Pen][NMeR]SDTL[Pen][Phe(4-COOH)][β3hE][NMeK]-NH2; disulfide I:1-I:7, II:1-II:7; linker I:10-II:10 via Diglycolyl) | < 10 | 100 to 500 nM | > 5 | –
5 | CC(=O)N[C@@H]1C(=O)N(C)[C@@H](CCCNC(=N)N)C(=O)N[C@@H](CO)C(=O)N[C@@H](CC(=O)O)C(=O)N[C@@H]([C@@H](C)O)C(=O)N[C@@H](CC(C)C)C(=O)N[C@H](C(=O)N[C@@H](Cc2ccc(C(C)(C)C)cc2)C(=O)N[C@@H](CCC(=O)O)CC(=O)N(C)[C@@H](CCCCNC(=O)COCC(=O)NCCCC[C@@H](C(N)=O)N(C)C(=O)C[C@H](CCC(=O)O)NC(=O)[C@H](Cc2ccc(C(C)(C)C)cc2)NC(=O)[C@H]2NC(=O)[C@H](CC(C)C)NC(=O)[C@H]([C@@H](C)O)NC(=O)[C@H](CC(=O)O)NC(=O)[C@H](CO)NC(=O)[C@H](CCCNC(=N)N)N(C)C(=O)[C@@H](NC(C)=O)C(C)(C)SSC2(C)C)C(N)=O)C(C)(C)SSC1(C)C [compound 149] (I: Ac-[Pen][NMeR]SDTL[Pen][Phe(4-tBu)][β3hE][NMeK]-NH2 / II: Ac-[Pen][NMeR]SDTL[Pen][Phe(4-tBu)][β3hE][NMeK]-NH2; disulfide I:1-I:7, II:1-II:7; linker I:10-II:10 via Diglycolyl) | < 10 | 500 to 1000 nM | > 5 | –
6 | CC(=O)N[C@@H]1C(=O)N(C)[C@@H](CCCNC(=N)N)C(=O)N[C@@H](CO)C(=O)N[C@@H](CC(=O)O)C(=O)N[C@@H]([C@@H](C)O)C(=O)N[C@@H](CC(C)C)C(=O)N[C@H](C(=O)N[C@@H](Cc2ccc(-c3ccccc3)cc2)C(=O)N[C@@H](CCC(=O)O)CC(=O)N(C)[C@@H](CCCCNC(=O)COCC(=O)NCCCC[C@@H](C(N)=O)N(C)C(=O)C[C@H](CCC(=O)O)NC(=O)[C@H](Cc2ccc(-c3ccccc3)cc2)NC(=O)[C@H]2NC(=O)[C@H](CC(C)C)NC(=O)[C@H]([C@@H](C)O)NC(=O)[C@H](CC(=O)O)NC(=O)[C@H](CO)NC(=O)[C@H](CCCNC(=N)N)N(C)C(=O)[C@@H](NC(C)=O)C(C)(C)SSC2(C)C)C(N)=O)C(C)(C)SSC1(C)C [compound 150] (I: Ac-[Pen][NMeR]SDTL[Pen][Bip][β3hE][NMeK]-NH2 / II: Ac-[Pen][NMeR]SDTL[Pen][Bip][β3hE][NMeK]-NH2; disulfide I:1-I:7, II:1-II:7; linker I:10-II:10 via Diglycolyl) | < 10 | 1000 to 10000 nM | > 5 | –
7 | CC(=O)N[C@@H]1C(=O)N(C)[C@@H](CCCNC(=N)N)C(=O)N[C@@H](CO)C(=O)N[C@@H](CC(=O)O)C(=O)N[C@@H]([C@@H](C)O)C(=O)N[C@@H](CC(C)C)C(=O)N[C@H](C(=O)N[C@@H](Cc2ccc(C(C)(C)C)cc2)C(=O)N[C@@H](CCC(=O)O)CC(=O)O)C(C)(C)SSC1(C)C [compound 152] (Ac-[Pen][NMeR]SDTL[Pen][Phe(4-tBu)][β3hE]-OH; disulfide 1-7) | < 10 | 100 to 500 nM | 2.45 | –
8 | CC(=O)N[C@@H]1C(=O)N(C)[C@@H](CCCNC(=N)N)C(=O)N[C@@H](CO)C(=O)N[C@@H](CC(=O)O)C(=O)N[C@@H]([C@@H](C)O)C(=O)N[C@@H](CC(C)C)C(=O)N[C@H](C(=O)N[C@@H](Cc2ccc(C(C)(C)C)cc2)C(=O)N[C@@H](CCC(=O)O)CC(=O)N[C@H](CCCCN)C(N)=O)C(C)(C)SSC1(C)C [compound 153] (Ac-[Pen][NMeR]SDTL[Pen][Phe(4-tBu)][β3hE][dK]-NH2; disulfide 1-7) | 10 to 25 | 1000 to 10000 nM | – | half-life at 22 μM [1, 5]: 13.6 h
9 | CC(=O)N[C@H]1CSSC[C@@H](C(=O)NCC(=O)N[C@@H](CCC(=O)O)C(N)=O)NC(=O)[C@H](CC(C)C)NC(=O)[C@H]([C@@H](C)O)NC(=O)[C@H](CC(=O)O)NC(=O)[C@H](CO)NC(=O)[C@H](CCCNC(=N)N)NC1=O [compound 194, Ac-C-R-S-D-T-L-C-G-E-NH2] (Ac-CRSDTLCGE-NH2; disulfide 1-7) | – | – | – | IC50 (α4β7; Table 4-B, read-out: Cell Adhesion α4β7 IC50): 590 nM; IC50 (α4β1; Table 4-B, read-out: ELISA_α4β1 IC50): 2020 nM; half-life at 22 μM ([1]; simulated intestinal fluid (SIF) with 1% porcine pancreatin, pH 6.5, Table 4-C, t1/2, > means assay stopped at that time, read-out: SIF (porcine) Min): < 0.0167 h
